Converted amounts (≈) assume the structure as drawn.
Assays:
[1] = system: Mycobacterium tuberculosis; assay: Antimycobacterial activity against multidrug-resistant Mycobacterium tuberculosis CF104 clinical isolate incubated for 7 days measured 24 hrs post incubation by resazurin microtiter assay; assay type: functional
[2] = system: Mycobacterium tuberculosis; assay: Antimycobacterial activity against multidrug-resistant Mycobacterium tuberculosis CF81 clinical isolate incubated for 7 days measured 24 hrs post incubation by resazurin microtiter assay; assay type: functional

CN1CCN(CCCN2c3ccccc3Sc3ccccc32)CC1 [PERAZINE]
MIC90 [1]: > 100 µg/mL
MIC90 [2]: > 100 µg/mL

CN1CCCCC1CCn1c2ccccc2c2ccccc21 (configuration not stated)
MIC90 [1]: 48 µg/mL (≈ 164 µM)
MIC90 [2]: 46 µg/mL (≈ 157 µM)

CSc1ccc2c(c1)N(CCC1CCCCN1)c1ccccc1S2 (configuration not stated)
MIC90 [1]: > 100 µg/mL
MIC90 [2]: > 100 µg/mL

CSc1ccc2c(c1)N(CCC1CCCCN1C)c1ccccc1S2 (configuration not stated) [THIORIDAZINE]
MIC90 [1]: 11 µg/mL (≈ 29.7 µM)
MIC90 [2]: 10 µg/mL (≈ 27 µM)

CO[C@H]1/C=C/O[C@@]2(C)Oc3c(C)c(O)c4c(O)c(c(/C=N/N5CCN(C)CC5)c(O)c4c3C2=O)NC(=O)/C(C)=C\C=C\[C@H](C)[C@H](O)[C@@H](C)[C@@H](O)[C@@H](C)[C@H](OC(C)=O)[C@@H]1C [RIFAMPIN]
MIC90 [1]: > 25 µg/mL
MIC90 [2]: > 25 µg/mL

CSc1ccc2c(c1)N(C(=O)CN1CCCCC1)c1ccccc1S2
MIC90 [1]: 72 µg/mL (≈ 194 µM)
MIC90 [2]: > 100 µg/mL

NNC(=O)c1ccncc1 [ISONIAZID]
MIC90 [1]: > 25 µg/mL
MIC90 [2]: > 25 µg/mL

c1ccc2c(c1)ccn2CCC1CCCCN1 (configuration not stated)
MIC90 [1]: 10 µg/mL (≈ 43.8 µM)
MIC90 [2]: 4 µg/mL (≈ 17.5 µM)

CSc1ccc2c(c1)N(CCC1CCCCN1Cc1ccccc1)c1ccccc1S2 (configuration not stated)
MIC90 [1]: 32 µg/mL (≈ 71.6 µM)
MIC90 [2]: 44 µg/mL (≈ 98.5 µM)

Clc1ccc2c(c1)N(CCC1CCCCN1)c1ccccc1S2 (configuration not stated)
MIC90 [1]: 19 µg/mL (≈ 55.1 µM)
MIC90 [2]: 11 µg/mL (≈ 31.9 µM)

c1ccc2c(c1)ncn2CCC1CCCCN1 (configuration not stated)
MIC90 [1]: > 100 µg/mL
MIC90 [2]: > 100 µg/mL

CN1CCCCC1CCN1c2ccccc2Sc2ccccc21 (configuration not stated)
MIC90 [1]: > 64 µg/mL
MIC90 [2]: 58 µg/mL (≈ 179 µM)

CSc1ccc2c(c1)N(CCCN1CCN(C3C4CC5CC(C4)CC3C5)CC1)c1ccccc1S2 (configuration not stated)
MIC90 [1]: 20 µg/mL (≈ 39.5 µM)
MIC90 [2]: 48 µg/mL (≈ 94.9 µM)

c1ccc2c(c1)Sc1ccccc1N2CCC1CCCCN1 (configuration not stated)
MIC90 [1]: > 64 µg/mL
MIC90 [2]: 58 µg/mL (≈ 187 µM)

CN1CCCCC1CCN1c2ccccc2Sc2ccc(Cl)cc21 (configuration not stated)
MIC90 [1]: 16 µg/mL (≈ 44.6 µM)
MIC90 [2]: 12 µg/mL (≈ 33.4 µM)

CSc1ccc2c(c1)N(CCCN1CCN(C)CC1)c1ccccc1S2
MIC90 [1]: 23 µg/mL (≈ 59.6 µM)
MIC90 [2]: 33 µg/mL (≈ 85.6 µM)
